# Results reported in patent publication US12522595B2, “Bicyclic ether O-glycoprotein-2-acetamido-2-deoxy-3-D-glucopyranosidase inhibitors” (BIOGEN MA INC., priority 2019, dated 2026).
# Target: T1, Recombinant full length human OGA enzyme (Homo sapiens, UniProt O60502)
# T1 construct: Recombinant full length human OGA enzyme was purchased from Origene; purchased Origene
# T1 sequence (O60502 1-916): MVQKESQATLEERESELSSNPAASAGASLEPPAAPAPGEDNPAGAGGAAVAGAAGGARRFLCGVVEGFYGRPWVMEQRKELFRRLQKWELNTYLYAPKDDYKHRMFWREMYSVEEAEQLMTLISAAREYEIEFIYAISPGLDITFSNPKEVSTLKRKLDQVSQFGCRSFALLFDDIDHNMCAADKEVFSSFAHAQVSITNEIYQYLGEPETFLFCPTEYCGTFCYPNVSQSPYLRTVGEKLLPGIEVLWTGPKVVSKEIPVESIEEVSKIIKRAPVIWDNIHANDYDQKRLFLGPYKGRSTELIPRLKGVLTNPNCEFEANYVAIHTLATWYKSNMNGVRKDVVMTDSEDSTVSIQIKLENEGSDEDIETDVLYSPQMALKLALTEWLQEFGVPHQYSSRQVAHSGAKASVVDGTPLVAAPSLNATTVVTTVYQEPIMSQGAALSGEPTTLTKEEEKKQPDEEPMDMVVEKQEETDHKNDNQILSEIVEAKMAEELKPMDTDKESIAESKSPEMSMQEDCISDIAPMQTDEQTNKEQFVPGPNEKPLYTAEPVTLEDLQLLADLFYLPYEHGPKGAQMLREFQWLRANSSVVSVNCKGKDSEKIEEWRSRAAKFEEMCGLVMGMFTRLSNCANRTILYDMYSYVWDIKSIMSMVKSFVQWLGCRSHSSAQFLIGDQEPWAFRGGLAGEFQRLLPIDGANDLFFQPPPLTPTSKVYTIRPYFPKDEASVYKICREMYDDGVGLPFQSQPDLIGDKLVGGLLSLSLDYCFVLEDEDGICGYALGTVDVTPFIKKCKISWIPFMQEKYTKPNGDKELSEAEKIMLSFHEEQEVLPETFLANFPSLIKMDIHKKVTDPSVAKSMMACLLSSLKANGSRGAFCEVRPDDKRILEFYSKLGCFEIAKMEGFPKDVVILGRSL
# Assay: OGA enzyme inhibition biochemical assay
# Details: 1 nM OGA, 100 μM 4-MUGlcNAc (Km), pH 6.4, 90 minutes at room temperature, 10-point dose-response from 20 μM
# In short: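 1 nM OGA with 100 μM 4-MUGlcNAc (Km) in McIlvaine buffer pH 6.4, 0.01% BSA, 90 min at room temperature; quenched with 3M glycine pH 10, fluorescence Ex 355/Em 460 nm. 10-point, 4-fold dilutions from 20 μM; 4-parameter variable-slope fit.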
row,Structure (SMILES),IC50 [nM]
1,"CC(=O)Nc1nc(F)c(CN2C[C@H](Oc3nccc4occc34)C[C@@H]2C)s1 [Example 70, N-(4-fluoro-5-(((2S,4R)-4-(furo[3,2-c]pyridin-4-yloxy)-2-methylpyrrolidin-1-yl)methyl)thiazol-2-yl)acetamide]",1.2
2,"CC(=O)Nc1nc(F)c(CN2C[C@H](Oc3cn4cccnc4n3)C[C@@H]2C)s1 [Example 92, N-(4-fluoro-5-(((2S,4R)-4-(imidazo[1,2-a]pyrimidin-2-yloxy)-2-methylpyrrolidin-1-yl)methyl)thiazol-2-yl)acetamide]",< 1
3,"CC(=O)Nc1nc(F)c(CN2C[C@H](Oc3ccn4ccnc4c3)C[C@@H]2C)s1 [Example 43, N-(4-fluoro-5-(((2S,4R)-4-(imidazo[1,2-a]pyridin-7-yloxy)-2-methylpyrrolidin-1-yl)methyl)thiazol-2-yl)acetamide]",< 1
4,"CC(=O)Nc1ncc(CN2C[C@H](Oc3nccc4cc(F)ccc34)C[C@@H]2C)s1 [Example 27, N-(5-(((2S,4R)-4-((6-fluoroisoquinolin-1-yl)oxy)-2-methylpyrrolidin-1-yl)methyl)thiazol-2-yl)acetamide]",4
5,"CC(=O)Nc1nc(F)c(CN2C[C@H](Oc3ccc4ccccc4n3)C[C@@H]2C)s1 [Example 78, N-(4-fluoro-5-(((2S,4R)-2-methyl-4-(quinolin-2-yloxy)pyrrolidin-1-yl)methyl)thiazol-2-yl)acetamide]",< 1
6,"CC(=O)Nc1ncc(CN2C[C@H](Oc3nccc4oc(C(N)=O)cc34)C[C@@H]2C)s1 [Example 25, 4-(((3R,5S)-1-((2-acetamidothiazol-5-yl)methyl)-5-methylpyrrolidin-3-yl)oxy)furo[3,2-c]pyridine-2-carboxamide]",2.8
7,"CC(=O)Nc1ncc(CN2C[C@H](Oc3nccc4occc34)C[C@@H]2C)s1 [Example 69, N-(5-(((2S,4R)-4-(furo[3,2-c]pyridin-4-yloxy)-2-methylpyrrolidin-1-yl)methyl)thiazol-2-yl)acetamide]",2.7
8,"CC(=O)Nc1nc(F)c(CN2C[C@H](Oc3ccn4nccc4c3)C[C@@H]2C)s1 [Example 49, N-(4-fluoro-5-(((2S,4R)-2-methyl-4-(pyrazolo[1,5-a]pyridin-5-yloxy)pyrrolidin-1-yl)methyl)thiazol-2-yl)acetamide]",< 1
9,"CC(=O)Nc1nc(F)c(CN2C[C@H](Oc3ccc4ccnn4c3)C[C@@H]2C)s1 [Example 54, N-(4-fluoro-5-(((2S,4R)-2-methyl-4-(pyrazolo[1,5-a]pyridin-6-yloxy)pyrrolidin-1-yl)methyl)thiazol-2-yl)acetamide]",< 1
10,"CC(=O)Nc1ncc(CN2C[C@H](Oc3ncnc4cc(OC(F)F)ccc34)C[C@@H]2C)s1 [Example 14, N-(5-(((2S,4R)-4-((7-(difluoromethoxy)quinazolin-4-yl)oxy)-2-methylpyrrolidin-1-yl)methyl)thiazol-2-yl)acetamide]",< 1
11,"CC(=O)Nc1ncc(CN2C[C@H](Oc3cc(C(F)(F)F)c4cn(C)nc4n3)C[C@@H]2C)s1 [Example 12, N-(5-(((2S,4R)-2-methyl-4-((2-methyl-4-(trifluoromethyl)-2H-pyrazolo[3,4-b]pyridin-6-yl)oxy)pyrrolidin-1-yl)methyl)thiazol-2-yl)acetamide]",< 1
12,"CC(=O)Nc1nc(F)c(CN2C[C@H](Oc3ccc4cn(C)nc4c3)C[C@@H]2C)s1 [Example 51, N-(4-fluoro-5-(((2S,4R)-2-methyl-4-((2-methyl-2H-indazol-6-yl)oxy)pyrrolidin-1-yl)methyl)thiazol-2-yl)acetamide]",< 1
13,"CC(=O)Nc1ncc(CN2C[C@H](Oc3ccnc4ccoc34)C[C@@H]2C)s1 [Example 48, N-(5-(((2S,4R)-4-(furo[3,2-b]pyridin-7-yloxy)-2-methylpyrrolidin-1-yl)methyl)thiazol-2-yl)acetamide]",< 1
14,"CC(=O)Nc1nc(F)c(CN2C[C@H](Oc3cccc4nn(C)cc34)C[C@@H]2C)s1 [Example 84, N-(4-fluoro-5-(((2S,4R)-2-methyl-4-((2-methyl-2H-indazol-4-yl)oxy)pyrrolidin-1-yl)methyl)thiazol-2-yl)acetamide]",< 1

# The next lines start with the values.
row,IC50 [nM],Structure (SMILES)
1,< 1,"CC(=O)Nc1nc(F)c(CN2C[C@H](Oc3ccnc4nn(C)cc34)C[C@@H]2C)s1 [Example 140, N-(4-fluoro-5-(((2S,4R)-2-methyl-4-((2-methyl-2H-pyrazolo[3,4-b]pyridin-4-yl)oxy)pyrrolidin-1-yl)methyl)thiazol-2-yl)acetamide]"
2,2.6,"CC(=O)Nc1nc(F)c(CN2C[C@H](Oc3nnc4cnccn34)C[C@@H]2C)s1 [Example 174, N-(5-(((2S,4R)-4-([1,2,4]triazolo[4,3-a]pyrazin-3-yloxy)-2-methylpyrrolidin-1-yl)methyl)-4-fluorothiazol-2-yl)acetamide]"
3,1.8,"COc1cc2c(O[C@@H]3C[C@H](C)N(Cc4sc(NC(C)=O)nc4F)C3)ncnc2cc1F [Example 125, N-(4-fluoro-5-(((2S,4R)-4-((7-fluoro-6-methoxyquinazolin-4-yl)oxy)-2-methylpyrrolidin-1-yl)methyl)thiazol-2-yl)acetamide]"
4,< 1,"CC(=O)Nc1nc(F)c(CN2C[C@H](Oc3ccnc4cn(C)nc34)C[C@@H]2C)s1 [Example 134, N-(4-fluoro-5-(((2S,4R)-2-methyl-4-((2-methyl-2H-pyrazolo[4,3-b]pyridin-7-yl)oxy)pyrrolidin-1-yl)methyl)thiazol-2-yl)acetamide]"
5,< 1,"CC(=O)Nc1ncc(CN2C[C@H](Oc3ccc4ccnn4c3)C[C@@H]2C)s1 [Example 155, N-(5-(((2S,4R)-2-methyl-4-(pyrazolo[1,5-a]pyridin-6-yloxy)pyrrolidin-1-yl)methyl)thiazol-2-yl)acetamide]"
6,< 1,"CC(=O)Nc1nc(F)c(CN2C[C@H](Oc3ccc4ccn(C)c4n3)C[C@@H]2C)s1 [Example 163, N-(4-fluoro-5-(((2S,4R)-2-methyl-4-((1-methyl-1H-pyrrolo[2,3-b]pyridin-6-yl)oxy)pyrrolidin-1-yl)methyl)thiazol-2-yl)acetamide]"
7,< 1,"COc1cc2cnc(O[C@@H]3C[C@H](C)N(Cc4sc(NC(C)=O)nc4F)C3)cc2cc1F [Example 130, N-(4-fluoro-5-(((2S,4R)-4-((6-fluoro-7-methoxyisoquinolin-3-yl)oxy)-2-methylpyrrolidin-1-yl)methyl)thiazol-2-yl)acetamide]"
8,4.3,"CC(=O)Nc1nc(F)c(CN2C[C@H](Oc3nccc4cn(C)nc34)C[C@@H]2C)s1 [Example 137, N-(4-fluoro-5-(((2S,4R)-2-methyl-4-((2-methyl-2H-pyrazolo[3,4-c]pyridin-7-yl)oxy)pyrrolidin-1-yl)methyl)thiazol-2-yl)acetamide]"
9,< 1,"CC(=O)Nc1nc(F)c(CN2C[C@H](Oc3nc4c(F)cccc4o3)C[C@@H]2C)s1 [Example 127, N-(4-fluoro-5-(((2S,4R)-4-((4-fluorobenzo[d]oxazol-2-yl)oxy)-2-methylpyrrolidin-1-yl)methyl)thiazol-2-yl)acetamide]"
10,< 1,"CC(=O)Nc1nc(F)c(CN2C[C@H](Oc3nccc4c3cnn4C)C[C@@H]2C)s1 [Example 138, N-(4-fluoro-5-(((2S,4R)-2-methyl-4-((1-methyl-1H-pyrazolo[4,3-c]pyridin-4-yl)oxy)pyrrolidin-1-yl)methyl)thiazol-2-yl)acetamide]"
